# Source: patent US7138361B2, “Herbicidal heterocycles” (E. I. du Pont de Nemours and Company, priority 2000, dated 2006)
# Columns and labels:
# Type in all cases: in vivo
# [1] = test system: Nightshade; assay: Test C preemergence
# [2] = test system: Sunflower; assay: Test C preemergence; details: Rate 62 g/ha; scale 0 to 100, 0 no effect, 100 complete control
# [3] = test system: Surinam grass (Brachiaria decumbens); assay: Test C preemergence
# Procedure, shortened: (§1)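 Response scores (0 no effect to 100 complete control) came from visual comparison with untreated controls 12 to 14 days after treatment. Preemergence application was made to seeded soil; postemergence, to plants at the 1- to 4-leaf stage.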
# [4] = test system: bermudagrass (Cynodon dactylon); assay: Test C preemergence
# Procedure, shortened: as §1
# [5] = test system: cocklebur (Xanthium strumarium); assay: Test C preemergence
# Procedure, shortened: as §1
# [6] = test system: corn (Zea mays); assay: Test C preemergence
# Procedure, shortened: as §1
# [7] = test system: crabgrass (Digitaria sanguinalis); assay: Test C preemergence
# Procedure, shortened: as §1
# [8] = test system: giant foxtail (Setaria faberii); assay: Test C preemergence
# Procedure, shortened: as §1
# [9] = test system: goosegrass (Eleusine indica); assay: Test C preemergence
# Procedure, shortened: as §1
# [10] = test system: johnsongrass (Sorghum halepense); assay: Test C preemergence
# Procedure, shortened: as §1
# [11] = test system: kochia (Kochia scoparia); assay: Test C preemergence
# Procedure, shortened: as §1
# [12] = test system: lambsquarters (Chenopodium album); assay: Test C preemergence
# Procedure, shortened: as §1
# [13] = test system: morningglory (Ipomoea hederacea); assay: Test C preemergence
# Procedure, shortened: as §1
# [14] = test system: pigweed (Amaranthus retroflexus); assay: Test C preemergence
# Procedure, shortened: as §1
# [15] = test system: soybean (Glycine max); assay: Test C preemergence
# Procedure, shortened: as §1
# [16] = test system: velvetleaf (Abutilon theophrasti); assay: Test C preemergence
# Procedure, shortened: as §1
# [17] = test system: woolly cupgrass (Eriochloa villosa); assay: Test C preemergence
# Procedure, shortened: as §1
# [18] = test system: yellow nutsedge (Cyperus esculentus); assay: Test C preemergence
# Procedure, shortened: as §1
# [19] = test system: barnyardgrass (Echinochloa crus-galli); assay: Test C flooded paddy test; details: for Barnyardgrass plant response rating: Flooded Paddy, scale 0 to 100, 0 no effect, 100 complete control; for Plant response rating, Barnyardgrass: flooded paddy test, scale 0 to 100 (0 no effect, 100 complete control)
# Procedure, shortened: (§2)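 Greenhouse-maintained for 12 to 14 days after treatment, the paddy plants (2-leaf stage at application) were scored visually against controls. A score of 0 denotes no effect and a score of 100 denotes complete control.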
# [20] = test system: duck salad (Heteranthera limosa); assay: Test C flooded paddy test; details: for Ducksalad plant response rating: Flooded Paddy, scale 0 to 100, 0 no effect, 100 complete control; for Plant response rating, Ducksalad: flooded paddy test, scale 0 to 100 (0 no effect, 100 complete control)
# Procedure, shortened: as §2
# [21] = test system: smallflower flatsedge (Cyperus difformis); assay: Test C flooded paddy test; details: for Flatsedge plant response rating: Flooded Paddy, scale 0 to 100, 0 no effect, 100 complete control; for Plant response rating, Flatsedge: flooded paddy test, scale 0 to 100 (0 no effect, 100 complete control)
# Procedure, shortened: as §2
# [22] = test system: Sunflower; assay: Test C preemergence; details: Rate 250 g/ha, visual evaluation after 12 to 14 days
# [23] = Rate 62 g/ha, scale 0 to 100, 0 no effect, 100 complete control
# [24] = preemergence, Rate 31 g/ha, scale 0 to 100
# [25] = preemergence, Rate 250 g/ha, visual evaluation after 12 to 14 days
# [26] = preemergence, Rate 125 g/ha, scale 0 to 100, 0 no effect, 100 complete control
compound,measurement,setting,value
CC(C)(C)c1ccn(C2SCN(c3cccc(OC(F)F)c3)C2=O)n1 (centres unmarked) [Compound 36],"Plant response rating, Nightshade","[1]; Rate 31 g/ha, scale 0 to 100",0
same,"Plant response rating, Nightshade",[1]; [23],30
same,"Plant response rating, Nightshade","[1]; Rate 125 g/ha, scale 0 to 100, 0 no effect, 100 complete control",50
same,"Plant response rating, Sunflower",[2],0
same,"Plant response rating, Surinam grass",[3]; [23],70
same,"Plant response rating, Surinam grass",[3]; [24],20
same,"Plant response rating (0 to 100), Surinam grass",[3]; [25],100
same,"Plant response rating, Surinam grass",[3]; [26],70
same,"Plant response rating, Bermudagrass",[4]; [23],100
same,"Plant response rating, Bermudagrass",[4]; [24],100
same,"Plant response rating (0 to 100 where 0 is no effect and 100 is complete control), Bermudagrass",[4]; [25],100
same,"Plant response rating, Bermudagrass",[4]; [26],100
same,"Plant response rating, Cocklebur",[5]; [23],30
same,"Plant response rating, Cocklebur",[5]; [24],0
same,"Plant response rating (0 to 100), Cocklebur",[5]; [25],30
same,"Plant response rating, Corn",[6]; [23],20
same,"Plant response rating, Corn",[6]; [24],0
same,"Plant response rating (0 to 100), Corn",[6]; [25],80
same,"Plant response rating, Corn",[6]; [26],40
same,"Plant response rating, Crabgrass",[7]; [23],100
same,"Plant response rating, Crabgrass",[7]; [24],90
same,"Plant response rating (0 to 100), Crabgrass",[7]; [25],100
same,"Plant response rating, Crabgrass",[7]; [26],100
same,"Plant response rating, Foxtail, Giant",[8]; [23],0
same,"Plant response rating, Foxtail, Giant",[8]; [24],90
same,"Plant response rating (0 to 100), Foxtail, Giant",[8]; [25],100
same,"Plant response rating, Foxtail, Giant",[8]; [26],100
same,"Plant response rating, Goosegrass",[9]; [23],100
same,"Plant response rating, Goosegrass",[9]; [24],90
same,"Plant response rating (0 to 100), Goosegrass",[9]; [25],100
same,"Plant response rating, Goosegrass",[9]; [26],100
same,"Plant response rating, Johnsongrass",[10]; [23],90
same,"Plant response rating, Johnsongrass",[10]; [24],50
same,"Plant response rating (0 to 100), Johnsongrass",[10]; [25],100
same,"Plant response rating, Johnsongrass",[10]; [26],90
same,"Plant response rating, Kochia",[11]; [23],100
same,"Plant response rating, Kochia",[11]; [24],70
same,"Plant response rating (0 to 100), Kochia",[11]; [25],100
same,"Plant response rating, Kochia",[11]; [26],100
same,"Plant response rating, Lambsquarters",[12]; [23],100
same,"Plant response rating, Lambsquarters",[12]; [24],100
same,"Plant response rating (0 to 100), Lambsquarters",[12]; [25],100
same,"Plant response rating, Lambsquarters",[12]; [26],100
same,"Plant response rating, Morningglory",[13]; [23],0
same,"Plant response rating, Morningglory",[13]; [24],0
same,"Plant response rating (0 to 100), Morningglory",[13]; [25],50
same,"Plant response rating, Morningglory",[13]; [26],0
same,"Plant response rating, Pigweed",[14]; [23],0
same,"Plant response rating, Pigweed",[14]; [24],0
same,"Plant response rating (0 to 100), Pigweed",[14]; [25],100
same,"Plant response rating, Pigweed",[14]; [26],0
same,"Plant response rating, Soybean",[15]; [23],30
same,"Plant response rating, Soybean",[15]; [24],30
same,"Plant response rating (0 to 100), Soybean",[15]; [25],50
same,"Plant response rating, Soybean",[15]; [26],50
same,"Plant response rating, Velvetleaf",[16]; [23],0
same,"Plant response rating, Velvetleaf",[16]; [24],0
same,"Plant response rating (0 to 100), Velvetleaf",[16]; [25],40
same,"Plant response rating, Velvetleaf",[16]; [26],0
same,"Plant response rating, Cupgrass, Woolly",[17]; [23],60
same,"Plant response rating, Cupgrass, Woolly",[17]; [24],30
same,"Plant response rating (0 to 100), Cupgrass, Woolly",[17]; [25],100
same,"Plant response rating, Cupgrass, Woolly",[17]; [26],100
same,"Plant response rating, Nutsedge",[18]; [23],0
same,"Plant response rating, Nutsedge",[18]; [24],0
same,"Plant response rating (0 to 100), Nutsedge",[18]; [25],30
same,"Plant response rating, Nutsedge",[18]; [26],30
same,Barnyardgrass plant response rating,[19]; Rate 250 g/ha,100
same,Barnyardgrass plant response rating,[19]; Rate 500 g/ha,100
same,"Plant response rating, Barnyardgrass",[19]; Rate 62 g/ha,100
same,"Plant response rating, Barnyardgrass",[19]; Rate 125 g/ha,100
same,Ducksalad plant response rating,[20]; Rate 250 g/ha,100
same,Ducksalad plant response rating,[20]; Rate 500 g/ha,100
same,"Plant response rating, Ducksalad",[20]; Rate 62 g/ha,80
same,"Plant response rating, Ducksalad",[20]; Rate 125 g/ha,90
same,Flatsedge plant response rating,[21]; Rate 250 g/ha,100
same,Flatsedge plant response rating,[21]; Rate 500 g/ha,100
same,"Plant response rating, Flatsedge",[21]; Rate 62 g/ha,100
same,"Plant response rating, Flatsedge",[21]; Rate 125 g/ha,100
same,"Plant response rating (0 to 100), Sunflower",[22],30
